Source: US20180105840A1, “PROCESS FOR INDUSTRIAL PRODUCTION OF CHIRAL-1,1-DIFLUORO-2-PROPANOL” (PUBLIC UNIVERSITY CORPORATION TOYAMA PREFECTURAL UNIVERSITY, priority 2015, published 2018)

system: Ogataea polymorpha strain NBRC0799-derived carbonyl reductase; assay: Reactivity of purified Ogataea polymorpha strain NBRC0799-derived carbonyl reductase to substrates (reduction reaction, NADH decrease at 340 nm); assay type: biochemical; conditions: (a) Reduction reaction; substrate 50 mM, NADH 0.1 mM, 168 mM sodium phosphate buffer pH 6.0, 30° C.; enzyme activity with acetone as substrate defined as 100%
Experimental: For enzyme activity measurement, NADH was added at a final concentration of 0.1 mM to 168 mM sodium phosphate buffer (pH 6.0) containing an enzyme or a microorganism, and 1,1-difluoroacetone was added at a final concentration of 50 mM to this reaction solution to initiate the reaction (reaction solution volume: 1 mL). The reaction was conducted at 30° C., and decreases in NADH were monitored with a spectrophotometer (V-630BIO, JASCO Corporation, Japan) as changes in absorbance at 340 nm. It should be noted that the enzyme activity was determined assuming that the amount of enzyme required to catalyze the oxidation of 1 μmol NADH per minute was defined as 1 U (unit).
To 168 mM sodium phosphate buffer (pH 6.0) containing the enzyme purified from Ogataea polymorpha strain NBRC0799, NADH was added at a final concentration of 0.1 mM, and the substrates indicated in Table B below were each added at a final concentration of 50 mM to this reaction solution to initiate the reaction (reaction solution volume: I mL). The reaction was conducted at 30° C., and decreases in NADH were measured with a spectrophotometer (V-630BIO, JASCO Corporation, Japan) as changes in absorbance at 340 nm.
Relative activity refers to the ratio of enzyme activity (conversion speed) for each substrate in comparison with the enzyme activity when using acetone as a substrate, which is defined to be 100%. When 1,1-difluoroacetone or 1,1,1-trifluoroacetone is provided as a substrate, the conversion speed per se of the enzyme is reduced (many hours are required to complete the reaction). In the case of acetone, its two methyl groups are equal, so that acetone will be captured by a recognition site in the enzyme without distinction between these two methyl groups. However, in the case of 1,1-difluoroacetone and 1,1,1-trifluoroacetone, their capture by an active site in the enzyme would require recognition between a fluoromethyl group and a methyl group, so that the speed of their capture becomes slower. On the other hand, in the case of 1,3-difluoroacetone, the fluorine atoms introduced thereinto would alter electronegativity and so on, when compared to acetone.

SMILES | Relative Activity (%)
CCCC=O [Butyraldehyde] | 193%
CC(C)=O [Acetone, reference compound] | 100%
O=C(CF)CF [1,3-Difluoroacetone] | 52%
CC(=O)C(F)F [1,1-Difluoroacetone] | 58%
CCC(C)=O [2-Butanone] | 132%
CC(=O)CC(F)(F)F [4,4,4-Trifluoro-2-butanone] | 228%
CCC=O [Propionaldehyde] | 141%
CC=O [Acetaldehyde] | 330%
CC(=O)CF [Fluoroacetone] | 211%
CC(=O)C(F)(F)F [1,1,1-Trifluoroacetone] | 50%

same assay, conditions: substrate 50 mM, NADH 0.1 mM, pH 6.0, 30° C.

SMILES | conversion speed of the enzyme in comparison with acetone as a substrate
CC(=O)C(F)F [1,1-Difluoroacetone] | reduced
CC(=O)C(F)(F)F [1,1,1-Trifluoroacetone] | reduced
